Here are results for one molecule from patent US6506580B1, “Splice variants for human 5-HT4 serotonin receptor and their applications, in particular for screening” (Institut National de la Sante et de la Recherche Medicale …, priority 1997, dated 2003).

As usually defined, the Ki is the dissociation constant of the complex between target and ligand, obtained from inhibition or displacement.

Each structure is given as a SMILES string.

One assay has as its target receptor 5-HT4(d) (Homo sapiens, UniProt Q13639). Briefly: [3H]GR113808 radioligand binding, membranes of transiently transfected COS-7 cells. Further details: The entire coding region of the cDNAs of 5-HT4(a), 5-HT4(b), 5-HT4(c) and 5-T4(d) was subcloned; expressed in transfected cells; host or cells: COS-7 cells, transient, pRC/CMV vector; cDNA amplified from human brain and ileum RNA. To be noted: read-out: Ki, competition for [3H]GR113808 binding. As for the experimental part:
(§1) The entire coding region of the cDNAs of 5-HT4(a), 5-HT4(b), 5-HT4(c) and 5-T4(d) was subcloned into a mammalian expression vector pRC/CMV (Invitrogen, Carlsbad, Calif.). The transfections were carried out using polyethyleneimine (PEI) as described in Boussif et al. (1995). The cells were transfected using a mixture of DNA and of PEI in a ratio of 20 μmol of PEI/mg of DNA in 0.9% NaCl. For the radioligand binding assays, the COS-7 cells were seeded into culture flasks of 1.5×10^4 mm^2 one day before the transfection, at a density of 1×10^7 cells/flask, incubated for six hours with plasmid DNA (150 μg/flask) and collected 48 hours after transfection. For the measurement of cAMP formation, the COS-7 cells were seeded onto twelve-well plates one day before transfection, at a density of 5×10^5 cells/well, incubated for six hours with plasmid DNA (4 to 8 μg/well according to the experiments) and assayed 24 hours after the transfection. The cells transfected with the receptor 5-HT4 cDNA constructs were compared with the “blank”-transfected cells, which were exposed to the unmodified pRC/CMV plasmid.
(§2) Each flask of cells intended for the radioligand binding assays was washed twice with a phosphate buffer (PBS). The cells were then scraped, collected and centrifuged at 300 g for five minutes. The pellet was resuspended in 2.5 ml of ice-cold HEPES buffer (50 mM, pH 7.4) and homogenized with an Ultraturax tissue grinder. The lysate was then centrifuged at 40,000 g for 20 minutes at 4° C. The resulting pellet was resuspended in 15 volumes of HEPES buffer (50 mM, pH 7.4). The membrane preparations were maintained in ice and used within two hours for radioligand binding assays. The protein concentrations were determined by the method of Lowry et al., 1951, using bovine serum albumin as standard.
(§3) The saturation studies were performed using [^3H] GR113808 at 9 different concentrations ranging from 0.01 to 3.5 nM. The tubes were incubated at 25° C. for 30 minutes. The reaction-was stopped by rapid filtration, under vacuum, through Whatman GF/B filter paper using the Brandel 48R cell harvester. The filters were presoaked in a solution of PEI (0.1%) to reduce the binding to the filters. The filters were then washed with an ice-cold buffer (50 mM Tris-HCl, pH 7.4) and placed in 4 ml of “ready safe” scintillation cocktail (Beckman, Fullerton, Calif.) overnight. The radioactivity was measured using a Beckman LS 6500 C liquid scintillation counter. The binding data were analysed by computer-assisted nonlinear regression analysis (Graph Pad Prism Program, Graph Pad Software, Inc., San Diego, Calif.).
(§4) The experiments correspond to the competition of various compounds for [^3H]GR113808 binding to membranes of transiently transfected COS-7 cells. […] The estimations of affinity are given as Ki values in nM, and are determined from IC50 values obtained by computer-assisted nonlinear curve analysis (GraphPad, Prism Software). The Ki values are representative of at least two determinations.

The target of another assay is receptor 5-HT4(c) (Homo sapiens, UniProt Q13639). The description is as above. Further details: The entire coding region of the cDNAs of 5-HT4(a), 5-HT4(b), 5-HT4(c) and 5-T4(d) was subcloned; expressed in transfected cells; host or cells: COS-7 cells, transient, pRC/CMV vector; cDNA amplified from human brain and ileum RNA. To be noted: read-out: Ki, competition for [3H]GR113808 binding. As for the experimental part:
as §1, §2, §3, §4

The next assay deals with T1, receptor 5-HT4(a) (Homo sapiens, UniProt Q13639).
T1 construct: The entire coding region of the cDNAs of 5-HT4(a), 5-HT4(b), 5-HT4(c) and 5-T4(d) was subcloned; expressed in transfected cells; host or cells: COS-7 cells, transient, pRC/CMV vector
The description is as above. To be noted: read-out: Ki, competition for [3H]GR113808 binding. The procedure: as §1, §2, §3, §4

Another assay has as its target T2, receptor 5-HT4(b) (Homo sapiens, UniProt Q13639).
T2 construct: The entire coding region of the cDNAs of 5-HT4(a), 5-HT4(b), 5-HT4(c) and 5-T4(d) was subcloned; expressed in transfected cells; host or cells: COS-7 cells, transient, pRC/CMV vector; cDNA amplified from human brain and ileum RNA
The assay is described as above. To be noted: read-out: Ki, competition for [3H]GR113808 binding. The procedure: as §1, §2, §3, §4

For assay [1], the system named is “blank”-transfected COS-7 cells. Briefly: cAMP formation in control COS-7 cells. In kind it is cell-based. To be noted: 1 μM. The procedure: as §1
To measure intracellular cAMP accumulation, the transiently transfected COS-7 cells were incubated, 24 hours after transfection, in Dulbecco's modified Eagle medium (DMEM) containing 5 mM theophylline, 10 mM HEPES and 10 μM pargyline for 15 minutes at 37° C., in the presence of 5% CO2. […] The reaction was stopped by aspiration of the medium and addition of 500 μl of ice-cold ethanol. After one hour at room temperature, the cells were scraped, and everything was collected and freeze-dried. The pellet was resuspended in 350 μl of PBS and centrifuged for 5 min at 300 g. The cAMP was quantified in the supernatant using a radioimmunological assay (E.R.I.A. assay kit from Pasteur Diagnostics 79830). Student's t tests were carried out using the program Quick TEst.
Background: cAMP levels reflect the balance of adenylyl cyclase and phosphodiesterase activity.

T2 sequence (Q13639 whole entry): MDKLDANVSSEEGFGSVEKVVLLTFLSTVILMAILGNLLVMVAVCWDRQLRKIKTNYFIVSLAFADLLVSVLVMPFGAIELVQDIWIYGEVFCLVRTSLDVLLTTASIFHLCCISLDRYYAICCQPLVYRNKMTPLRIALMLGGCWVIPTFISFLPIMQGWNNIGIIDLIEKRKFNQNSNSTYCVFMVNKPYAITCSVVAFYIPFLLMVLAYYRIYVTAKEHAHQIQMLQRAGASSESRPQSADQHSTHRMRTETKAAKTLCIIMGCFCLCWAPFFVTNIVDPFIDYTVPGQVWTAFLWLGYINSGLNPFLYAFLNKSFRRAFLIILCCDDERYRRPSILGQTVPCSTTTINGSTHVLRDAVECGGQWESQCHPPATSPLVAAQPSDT
T1 sequence (Q13639 1-387 isoform Q13639-2): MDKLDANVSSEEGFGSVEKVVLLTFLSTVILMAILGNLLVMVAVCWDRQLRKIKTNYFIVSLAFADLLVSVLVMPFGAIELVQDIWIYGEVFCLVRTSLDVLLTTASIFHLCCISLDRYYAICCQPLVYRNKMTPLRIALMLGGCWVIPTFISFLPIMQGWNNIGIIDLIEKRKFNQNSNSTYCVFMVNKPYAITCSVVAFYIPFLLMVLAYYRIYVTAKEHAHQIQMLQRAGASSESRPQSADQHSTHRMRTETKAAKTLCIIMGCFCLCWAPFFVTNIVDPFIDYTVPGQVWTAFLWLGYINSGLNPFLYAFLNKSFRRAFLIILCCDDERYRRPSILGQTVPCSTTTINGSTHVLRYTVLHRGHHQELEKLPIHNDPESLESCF
Sequence of receptor 5-HT4(d) (Q13639 1-360 isoform Q13639-3): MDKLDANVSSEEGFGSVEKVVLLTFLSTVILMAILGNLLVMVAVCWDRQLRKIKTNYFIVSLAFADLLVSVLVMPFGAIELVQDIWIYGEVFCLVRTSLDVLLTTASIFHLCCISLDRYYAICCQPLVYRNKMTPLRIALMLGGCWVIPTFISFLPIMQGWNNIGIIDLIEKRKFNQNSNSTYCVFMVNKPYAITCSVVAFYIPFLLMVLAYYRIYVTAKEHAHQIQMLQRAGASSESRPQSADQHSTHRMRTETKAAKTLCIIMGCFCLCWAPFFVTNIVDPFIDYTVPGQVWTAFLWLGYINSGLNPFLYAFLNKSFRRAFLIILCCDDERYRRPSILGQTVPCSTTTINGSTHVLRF
Sequence of receptor 5-HT4(c) (Q13639 1-380 isoform Q13639-4): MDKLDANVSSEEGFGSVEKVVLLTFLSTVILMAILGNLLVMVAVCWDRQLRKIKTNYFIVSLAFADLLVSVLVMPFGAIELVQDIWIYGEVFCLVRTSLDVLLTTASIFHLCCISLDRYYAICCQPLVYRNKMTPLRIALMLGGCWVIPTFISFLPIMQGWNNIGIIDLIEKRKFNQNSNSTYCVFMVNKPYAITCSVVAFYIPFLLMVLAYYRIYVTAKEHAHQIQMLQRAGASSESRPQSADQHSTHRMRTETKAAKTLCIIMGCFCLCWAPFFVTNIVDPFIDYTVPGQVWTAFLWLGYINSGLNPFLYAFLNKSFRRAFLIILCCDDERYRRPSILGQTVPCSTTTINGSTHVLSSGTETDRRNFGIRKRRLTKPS

As for `COc1cc(N)c(Cl)cc1C(=O)OCCN1C[C@H](C)C[C@H](C)C1` [ML10375, 2-(cis-3,5-dimethyl-piperidino)ethyl 4-amino-5-chloro-2-methoxybenzoate], the Ki on receptor 5-HT4(d) stood at 410 ± 100 pM; at receptor 5-HT4(c) it was 610 ± 80 pM; at receptor 5-HT4(a), 560 ± 110 pM; at receptor 5-HT4(b), 1620 ± 820 pM. Besides, the “effect on basal adenylate cyclase activity / basal cAMP levels” value in assay [1] is recorded as “no significant effect”.
